Source: ChEMBL document CHEMBL1154749, “P2'-truncated BACE-1 inhibitors with a novel hydroxethylene-like core” (Eur J Med Chem, 2010)
pIC50: −log10 of the molar value.

What follows are compounds tested against Beta-secretase 1 (Homo sapiens, UniProt P56817) (assay: Inhibition of human brain BACE1 expressed in Escherichia coli BL21(DE) by TRF assay).
Beta-secretase 1, sequence (P56817 whole entry): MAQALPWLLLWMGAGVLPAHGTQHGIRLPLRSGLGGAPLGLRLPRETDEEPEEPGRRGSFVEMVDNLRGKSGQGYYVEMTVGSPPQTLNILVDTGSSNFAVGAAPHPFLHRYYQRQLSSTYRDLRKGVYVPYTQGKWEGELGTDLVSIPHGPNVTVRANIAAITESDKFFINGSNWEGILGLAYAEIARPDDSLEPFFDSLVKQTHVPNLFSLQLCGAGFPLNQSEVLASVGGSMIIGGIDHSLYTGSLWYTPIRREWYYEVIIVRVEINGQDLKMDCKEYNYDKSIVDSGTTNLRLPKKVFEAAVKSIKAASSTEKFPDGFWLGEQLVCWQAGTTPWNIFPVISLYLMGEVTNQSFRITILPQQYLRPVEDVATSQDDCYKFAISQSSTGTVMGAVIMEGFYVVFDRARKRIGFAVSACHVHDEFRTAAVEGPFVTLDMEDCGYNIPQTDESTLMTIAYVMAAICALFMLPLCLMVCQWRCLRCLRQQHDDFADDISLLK

pIC50	SMILES
< 5.00	COC[C@@H](C[C@H](O)[C@H](COc1cc(F)cc(F)c1)NC(=O)c1cc(C(=O)N[C@H](C)c2ccccc2)cc(N(C)S(C)(=O)=O)c1)OC
6.32	CO[C@@H](COC(C)C)C[C@H](O)[C@H](COc1cc(F)cc(F)c1)NC(=O)c1cc(C(=O)N[C@H](C)c2ccccc2)cc(N(C)S(C)(=O)=O)c1
6.62	CO[C@@H](COCc1ccccc1)C[C@H](O)[C@H](COc1cc(F)cc(F)c1)NC(=O)c1cc(C(=O)N[C@H](C)c2ccccc2)cc(N(C)S(C)(=O)=O)c1
5.19	CO[C@@H](COc1ccccc1)C[C@H](O)[C@H](COc1cc(F)cc(F)c1)NC(=O)c1cc(C(=O)N[C@H](C)c2ccccc2)cc(N(C)S(C)(=O)=O)c1
5.82	CCc1cn2c3c(ccc(C(=O)N[C@@H](COc4cc(F)cc(F)c4)[C@@H](O)C[C@H](COCc4ccc(OC)cc4)OC)c13)N(C)S(=O)(=O)CC2
5.73	CO[C@@H](COCC1CC1)C[C@H](O)[C@H](COc1cc(F)cc(F)c1)NC(=O)c1cc(C(=O)N[C@H](C)c2ccccc2)cc(N(C)S(C)(=O)=O)c1
5.82	CO[C@@H](CNc1ccccc1)C[C@H](O)[C@H](COc1cc(F)cc(F)c1)NC(=O)c1cc(C(=O)N[C@H](C)c2ccccc2)cc(N(C)S(C)(=O)=O)c1
< 5.00	COc1cccc(COC[C@@H](C[C@H](O)[C@H](COc2cc(F)cc(F)c2)NC(=O)c2cc(C(=O)N[C@H](C)c3ccccc3)cc(N(C)S(C)(=O)=O)c2)OC)c1
5.82	CO[C@@H](CNc1ccc(F)cc1)C[C@H](O)[C@H](COc1cc(F)cc(F)c1)NC(=O)c1cc(C(=O)N[C@H](C)c2ccccc2)cc(N(C)S(C)(=O)=O)c1

Continued, compound first:

SMILES	pIC50
COc1ccc(COC[C@@H](C[C@H](O)[C@H](COc2cc(F)cc(F)c2)NC(=O)c2cc(C(=O)N[C@H](C)c3ccccc3)cc(N(C)S(C)(=O)=O)c2)OC)cc1	6.85
CO[C@@H](CNCc1ccccc1)C[C@@H](O)[C@H](COc1cc(F)cc(F)c1)NC(=O)c1cc(C(=O)N[C@H](C)c2ccccc2)cc(N(C)S(C)(=O)=O)c1	< 5.00
COc1ccc(COC[C@@H](C[C@H](O)[C@H](COc2cc(F)cc(F)c2)NC(=O)c2cc(N(C)C[C@H]3C[C@@H]3C)nc(N(C)S(C)(=O)=O)c2)OC)cc1	5.74
CO[C@@H](CO)C[C@H](O)[C@H](COc1cc(F)cc(F)c1)NC(=O)c1cc(C(=O)N[C@H](C)c2ccccc2)cc(N(C)S(C)(=O)=O)c1	< 5.00
C=CCOC[C@@H](C[C@H](O)[C@H](COc1cc(F)cc(F)c1)NC(=O)c1cc(C(=O)N[C@H](C)c2ccccc2)cc(N(C)S(C)(=O)=O)c1)OC	5.69
CO[C@@H](COCc1ccc(F)cc1)C[C@H](O)[C@H](COc1cc(F)cc(F)c1)NC(=O)c1cc(C(=O)N[C@H](C)c2ccccc2)cc(N(C)S(C)(=O)=O)c1	< 5.00
CO[C@@H](CNCc1ccccc1)C[C@H](O)[C@H](COc1cc(F)cc(F)c1)NC(=O)c1cc(C(=O)N[C@H](C)c2ccccc2)cc(N(C)S(C)(=O)=O)c1	< 5.00
